SMILES strings stand for the structures.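 Compound exposure: 48 hours, 5 concentrations, 96-well plates. TGI is the concentration that stops growth completely.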 Bounds are passed on as bounds.

Holding throughout (assay): NCI-60 cell line screen, 48 h
Assay [1] relates to RXF 393 renal.
Assay [2] relates to HOP-92 NSCLC.
The test system of assay [3] is OVCAR-8 ovarian.
In assay [4] the test system is NCI-H226 lung.
For assay [5], the system named is UACC-257 melanoma.
Assay [6] has as its system IGROV1 ovarian.
Assay [7] deals with ACHN renal.
Assay [8] concerns NCI-H460 lung.
For assay [9], the system named is KM12 colon.
In assay [10] the test system is HL-60(TB) leukemia.

In the case of `O=C1C(Nc2ccc(S(=O)(=O)Nc3cnc4ccccc4n3)cc2)=CC(=Nc2ccc(S(=O)(=O)Nc3cnc4ccccc4n3)cc2)c2ccccc21`, the TGI was 32.3 µM in assay [1]; 28.7 µM in assay [2]; 39.5 µM in [3]; 43.7 µM in [4]; more than 65.2 µM in assay [5]; 37.4 µM in [6]. Moreover, the TGI in [7] is more than 54.9 µM; in assay [8], 31.7 µM; in assay [9], 31 µM; in assay [10], 54.7 µM.

Take `Cn1c(SCc2ccc([N+](=O)[O-])cc2)nnc1C12CC3CC(CC(C3)C1)C2`: the TGI in assay [1], in [2], in assay [3], in assay [4], in assay [6] and in [7] was more than 10 µM in each case. In addition, the TGI in assay [8], in [9] and in assay [10] was more than 10 µM throughout.

Regarding `COc1cc2c(cc1OC)C/C(=N\O)c1cc(OC)c(OC)cc1/C=C\2`, the TGI in [1] was 38.4 µM; in assay [2], more than 100 µM; in assay [3], 73.3 µM; in [4], 45.5 µM; in assay [5] it was more than 48.8 µM; in assay [6], 72.8 µM. In addition, the TGI is more than 100 µM in assay [7], more than 29.4 µM in [8], 95.8 µM in [9] and 19.5 µM in assay [10].

As for `CCOP(=O)(OCC)C(Cc1cn(S(=O)(=O)c2ccc(C)cc2)cn1)C(=O)O` (stereo not given), the TGI in [1], in assay [2], in [3], in [4], in assay [6] and in assay [7] was more than 100 µM throughout. The TGI in [8], in [9] and in assay [10] was more than 100 µM throughout.

For `CN(C)CC(O)CNC(=O)Nc1ccccc1` (stereo not given), the TGI in [1], in assay [2], in assay [3], in assay [4], in [5] and in assay [6] was more than 100 µM in each case. In addition, the TGI in assay [7], in assay [8], in assay [9] and in assay [10] was more than 100 µM in each case.

`C[C@]12CC[C@@H]3c4cc(C=O)c(OCc5ccccc5)cc4CC[C@H]3[C@@H]1CCC2OCc1ccccc1` (stereo not given in full): the TGI in [1], in [2], in [3], in assay [4], in [5] and in assay [7] was more than 100 µM throughout. The TGI in assay [8], in [9] and in assay [10] was more than 100 µM in each case.

Regarding `Cc1ccnc2[nH]c(-c3ccc(Cl)cc3)cc(=O)c12`, the TGI was more than 100 µM in assay [1]; more than 100 µM in [2]; more than 100 µM in assay [3]; more than 30.7 µM in assay [4]; more than 100 µM in assay [5]; more than 100 µM in [6]. In addition, the TGI was more than 100 µM in assay [7], more than 100 µM in assay [8], more than 100 µM in assay [9] and 4.74 µM in [10].

In the case of `Cn1c(=Nc2ccccc2[N+](=O)[O-])sc2ccccc21`, the TGI in assay [1] is more than 100 µM; in assay [2], 61.7 µM; in assay [3], more than 100 µM; in assay [4], more than 100 µM; in assay [5], more than 100 µM; in assay [6], more than 100 µM. Moreover, the TGI in assay [7] was more than 100 µM; in [8], more than 100 µM; in [9], 15.5 µM; in [10] it was more than 100 µM.

Turning to `CC(=O)Nc1ccc(S(=O)(=O)Nc2cnc3ccccc3n2)cc1`, the TGI in assay [1], in assay [2], in [3], in assay [4], in [5] and in assay [6] was more than 100 µM throughout. The TGI in assay [7], in assay [8], in assay [9] and in [10] was more than 100 µM in each case.

With `Nc1nc(Cl)cc(OCC2(CO)CCCCC2)n1`, the TGI in assay [1], in assay [2], in [3], in assay [4], in [5] and in assay [6] was more than 100 µM in each case. For the same compound, the TGI in assay [7], in [8] and in [10] was more than 100 µM in each case.

On to `c1ccc(C2SCc3nc4ccccc4n32)cc1` (stereo not given), for which the TGI in assay [1] was more than 100 µM; in assay [2] it was more than 100 µM; in [3] it was more than 100 µM; in assay [4], more than 100 µM; in assay [5], 77.6 µM; in assay [6], more than 100 µM. Moreover, the TGI in assay [7] was more than 100 µM; in assay [8], more than 100 µM; in assay [9] it was more than 100 µM; in assay [10], 46.5 µM.

`Cc1cccc(N=Nc2ccc(O)c(CN(C)C)c2)c1`: the TGI in [1] is 73.7 µM; in assay [2] it was more than 100 µM; in [3], 85.1 µM; in assay [4] it was more than 100 µM; in assay [5], 36 µM; in assay [6], 65.9 µM. For the same compound, the TGI amounted to 34.9 µM in assay [7], 34.8 µM in assay [8], 34.4 µM in [9] and 54.2 µM in assay [10].

Take `C=c1c2ccccc2oc2nc3[nH]c(N)c(C#N)c(N)c3c(=N)c12`: the TGI in assay [1] was more than 100 µM; in assay [2], more than 100 µM; in assay [3], 54.6 µM; in [4], 74.9 µM; in [5] it was more than 100 µM; in assay [6] it was 42.5 µM. Moreover, the TGI in assay [7] was more than 100 µM; in assay [8], more than 100 µM; in assay [9], 56.4 µM; in assay [10] it was 90.3 µM.

Consider `N#Cc1cc([N+](=O)[O-])ccc1NC(=O)C(=O)Nn1c(=S)[nH]c2ccccc2c1=O`, for which the TGI in assay [1], in assay [2], in assay [3], in assay [4], in assay [5] and in assay [6] was more than 100 µM in each case. Besides, the TGI in assay [8], in assay [9] and in assay [10] was more than 100 µM in each case.

Source of the values: PubChem BioAssay (NCI).
